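Where inhibition never reached the appropriate level, the endpoint shown equals the highest concentration tested. Otherwise, values were interpolated linearly from a five-concentration, 48-hour dose response in 96-well plates. At the GI50, growth is halved.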 Active and inactive are the calls of the source. Rule as the data show it: active = GI50 up to about 1.1 µM and inactive = higher. Where a SMILES comes first, the peptide text is derived from it. [ ]: non-standard residue; d: D form. The star is where a group is joined. ξ: configuration not given here. ξPhe(4-NO2) = NC(Cc1ccc([N+](=O)[O-])cc1)C(=O)O; Boc = CC(C)(C)OC(=O)*
Key:
Experiment in all cases: NCI tumour cell line growth inhibition, 48 h
[1] = tested on: UO-31
[2] = tested on: SN12C
[3] = tested on: SK-OV-3
[4] = tested on: SNB-75
[5] = tested on: SF-295
[6] = tested on: UACC-257
[7] = tested on: NCI-H460
[8] = tested on: SK-MEL-28
[9] = tested on: T47D
[10] = tested on: SF-539
[11] = tested on: HCT-116
[12] = tested on: OVCAR-3
[13] = tested on: EKVX
[14] = tested on: NCI/ADR-RES
[15] = tested on: HOP-62
[16] = tested on: OVCAR-4
[17] = tested on: MCF7
[18] = tested on: BT-549
[19] = tested on: SR
[20] = tested on: LOX IMVI

SMILES | GI50 [1] | GI50 [2] | GI50 [3] | GI50 [4] | GI50 [5] | GI50 [6] | GI50 [7] | GI50 [8] | GI50 [9] | GI50 [10] | GI50 [11] | GI50 [12] | GI50 [13] | GI50 [14] | GI50 [15] | GI50 [16] | GI50 [17] | GI50 [18] | GI50 [19] | GI50 [20]
CCOC(=O)CCC(NC(=O)Cc1ccc(Nc2nc3ccccc3nc2-c2cccs2)cc1)C(=O)OCC (stereo not given) | > 100 µM (inactive) | > 100 µM (inactive) | 40.8 µM (inactive) | 18.1 µM (inactive) | 53.2 µM (inactive) | 79.3 µM (inactive) | 81.3 µM (inactive) | > 100 µM (inactive) | 10.9 µM (inactive) | 24.9 µM (inactive) | > 100 µM (inactive) | 34 µM (inactive) | 53.7 µM (inactive) | 61.8 µM (inactive) | 31.9 µM (inactive) | 27.4 µM (inactive) | 41.1 µM (inactive) | > 100 µM (inactive) | 29.3 µM (inactive) | 
Cc1cc(S(=O)(=O)n2ccnc2O)c(SCCCN(C)C)cc1Cl | > 100 µM (inactive) | > 100 µM (inactive) | > 100 µM (inactive) |  | > 100 µM (inactive) | > 100 µM (inactive) | > 100 µM (inactive) | > 100 µM (inactive) | > 100 µM (inactive) | > 100 µM (inactive) | > 100 µM (inactive) | > 100 µM (inactive) | > 100 µM (inactive) | > 100 µM (inactive) | > 100 µM (inactive) | > 100 µM (inactive) | > 100 µM (inactive) | > 100 µM (inactive) | > 100 µM (inactive) | > 100 µM (inactive)
NC(Cc1c[nH]c2ccccc12)P(=O)(O)O (stereo not given) | > 100 µM (inactive) | > 100 µM (inactive) | > 100 µM (inactive) | > 100 µM (inactive) | > 100 µM (inactive) | > 100 µM (inactive) | > 100 µM (inactive) | > 100 µM (inactive) | > 100 µM (inactive) | > 100 µM (inactive) | > 100 µM (inactive) | > 100 µM (inactive) | > 100 µM (inactive) | > 100 µM (inactive) | > 100 µM (inactive) | > 100 µM (inactive) | > 100 µM (inactive) | > 100 µM (inactive) | > 100 µM (inactive) | 
CC(=O)N1N=C(c2ccccc2Nc2ccccc2C2=NN(C(C)=O)C(c3ccccc3)O2)OC1c1ccccc1 (stereo not given) | 48.5 µM (inactive) | > 100 µM (inactive) | 30.3 µM (inactive) |  | 32.8 µM (inactive) |  | 26.7 µM (inactive) | > 100 µM (inactive) | > 100 µM (inactive) |  | 32.5 µM (inactive) | > 100 µM (inactive) | 45.4 µM (inactive) | 55.6 µM (inactive) | > 100 µM (inactive) | 29.8 µM (inactive) | 11.5 µM (inactive) | 87.5 µM (inactive) | > 100 µM (inactive) | 81.8 µM (inactive)
CN1C(NN)=NS(=O)(=O)c2ccccc21 | > 100 µM (inactive) | > 100 µM (inactive) | > 100 µM (inactive) |  | > 100 µM (inactive) | > 100 µM (inactive) | > 100 µM (inactive) | > 100 µM (inactive) | > 100 µM (inactive) | > 100 µM (inactive) | > 100 µM (inactive) | > 100 µM (inactive) | > 100 µM (inactive) | > 100 µM (inactive) | > 100 µM (inactive) | > 100 µM (inactive) | > 100 µM (inactive) | > 100 µM (inactive) | 8.51 µM (inactive) | > 100 µM (inactive)
CCN(CC)/C(Cl)=C(Cl)\C(=C1\Nc2ccc(OC)cc21)[N+](=O)[O-] | 95.1 µM (inactive) | > 100 µM (inactive) | 75.5 µM (inactive) | 15.3 µM (inactive) | 45.8 µM (inactive) | 75.5 µM (inactive) | 31.1 µM (inactive) | 55.7 µM (inactive) | 24.6 µM (inactive) |  | 44.6 µM (inactive) | 13.7 µM (inactive) | 30.1 µM (inactive) | 70.6 µM (inactive) | 78.7 µM (inactive) | 30.8 µM (inactive) | 54.8 µM (inactive) | 37.1 µM (inactive) | 16.6 µM (inactive) | 38.7 µM (inactive)
CCCCOc1ccc(/C=C/C2=[N+](CCO)CCO2)cc1 | 32.1 µM (inactive) | 97.3 µM (inactive) | > 100 µM (inactive) | 67.1 µM (inactive) | 48.5 µM (inactive) | > 100 µM (inactive) | 68.7 µM (inactive) | > 100 µM (inactive) | 30.5 µM (inactive) | 21.7 µM (inactive) | 39.8 µM (inactive) | 61.5 µM (inactive) | > 100 µM (inactive) | 78 µM (inactive) | > 100 µM (inactive) | > 100 µM (inactive) | 29.4 µM (inactive) | > 100 µM (inactive) | 38 µM (inactive) | 
NC(CCC(=O)O)(CCC(=O)O)CCC(=O)O | > 100 µM (inactive) | > 100 µM (inactive) | > 100 µM (inactive) | > 100 µM (inactive) | > 100 µM (inactive) | > 100 µM (inactive) | > 100 µM (inactive) |  | > 100 µM (inactive) | > 100 µM (inactive) | > 100 µM (inactive) |  | > 100 µM (inactive) | > 100 µM (inactive) |  |  | > 100 µM (inactive) | > 100 µM (inactive) | > 100 µM (inactive) | 
[O-][S+](Nc1ccccc1)c1ccc(-c2ccccc2)cc1 (stereo not given) | > 100 µM (inactive) | > 100 µM (inactive) |  |  | 55.8 µM (inactive) | > 100 µM (inactive) | > 100 µM (inactive) | > 100 µM (inactive) | 11.5 µM (inactive) | > 100 µM (inactive) | > 100 µM (inactive) | > 100 µM (inactive) | > 100 µM (inactive) | > 100 µM (inactive) | > 100 µM (inactive) | 38.1 µM (inactive) | > 100 µM (inactive) | 8.57 µM (inactive) | > 100 µM (inactive) | 28.5 µM (inactive)
O=C(O)c1nc(-c2ccccc2)ncc1-c1nnnn1-c1ccccc1 | > 100 µM (inactive) | > 100 µM (inactive) | > 100 µM (inactive) | > 100 µM (inactive) | > 100 µM (inactive) | > 100 µM (inactive) | > 100 µM (inactive) | > 100 µM (inactive) | > 100 µM (inactive) | > 100 µM (inactive) | > 100 µM (inactive) | > 100 µM (inactive) | > 100 µM (inactive) | > 100 µM (inactive) | > 100 µM (inactive) |  | > 100 µM (inactive) | > 100 µM (inactive) | > 100 µM (inactive) | > 100 µM (inactive)
COc1ccc(S(=O)(=O)n2c3c(c4ccccc42)[C@@H]2[C@@H](CCCN2C(=O)C[S+]([O-])c2ccc(C)cc2)[C@H](Cl)C3)cc1 (stereo not given in full) | > 100 µM (inactive) | > 100 µM (inactive) | > 100 µM (inactive) | > 100 µM (inactive) | > 100 µM (inactive) | > 100 µM (inactive) | > 100 µM (inactive) | > 100 µM (inactive) | > 100 µM (inactive) | > 100 µM (inactive) | > 100 µM (inactive) | > 100 µM (inactive) | > 100 µM (inactive) | > 100 µM (inactive) | > 100 µM (inactive) |  | > 100 µM (inactive) | 5.83 µM (inactive) | > 100 µM (inactive) | > 100 µM (inactive)
CC(C)(C)C(=O)C(N)C(=O)C(C)(C)C | > 100 µM (inactive) | > 100 µM (inactive) | > 100 µM (inactive) | > 100 µM (inactive) | > 100 µM (inactive) | > 100 µM (inactive) | > 100 µM (inactive) | > 100 µM (inactive) | > 100 µM (inactive) | > 100 µM (inactive) | > 100 µM (inactive) |  |  | > 100 µM (inactive) | > 100 µM (inactive) | > 100 µM (inactive) | > 100 µM (inactive) | > 100 µM (inactive) | > 100 µM (inactive) | > 100 µM (inactive)
CCNC(=O)CNC(=O)C(Cc1ccc([N+](=O)[O-])cc1)NC(=O)OC(C)(C)C (stereo not given) (Boc-[ξPhe(4-NO2)]-Gly-NHEt) | > 100 µM (inactive) | > 100 µM (inactive) | > 100 µM (inactive) | > 100 µM (inactive) | > 100 µM (inactive) |  | > 100 µM (inactive) | > 100 µM (inactive) | > 10 µM (inactive) |  | > 100 µM (inactive) | > 100 µM (inactive) | > 100 µM (inactive) | > 100 µM (inactive) | > 100 µM (inactive) | > 100 µM (inactive) | > 100 µM (inactive) | > 100 µM (inactive) | > 100 µM (inactive) | > 100 µM (inactive)
O=C(O)c1ccccn1 [2-PICOLINIC ACID] | > 100 µM (inactive) | > 100 µM (inactive) |  | > 100 µM (inactive) | > 100 µM (inactive) | > 100 µM (inactive) | > 100 µM (inactive) | > 100 µM (inactive) | > 100 µM (inactive) | > 100 µM (inactive) | > 100 µM (inactive) | > 100 µM (inactive) | > 100 µM (inactive) | > 100 µM (inactive) | > 100 µM (inactive) | > 100 µM (inactive) | > 100 µM (inactive) | > 100 µM (inactive) | > 100 µM (inactive) | 
CN(C)CCN1C(=O)c2cccc3cc(N)cc(c23)C1=O [AMONAFIDE] | 4.18 µM (inactive) | 3.19 µM (inactive) | 4.42 µM (inactive) | 5.33 µM (inactive) | 3.46 µM (inactive) | 4.36 µM (inactive) | 0.767 µM (active) | 6.84 µM (inactive) | 4.5 µM (inactive) | 3.71 µM (inactive) | 1.87 µM (inactive) | 5.81 µM (inactive) | 5.94 µM (inactive) | 3.33 µM (inactive) | 2.43 µM (inactive) | 4.71 µM (inactive) | 1.87 µM (inactive) | 4.01 µM (inactive) |  | 2.46 µM (inactive)
